# Laboratory results reported in ChEMBL document CHEMBL3507680, “University of Dundee, Gates Library screen for HepG2 cell viability”.
# Experiment: Human HepG2 cell viability assay in 384 well format
# Format: toxicity, cell-based
# Set-up: dose 125 nL, time 70.5 hour; cytotoxicity at 70.5 h: concentration not given beside the values
# Settings: HepG2 cells, read-out: Inhibition
row,SMILES,cytotoxicity at 70.5 h
1,CC(C)n1ccnc1C1CCN(C(=O)N2CCCC2)CC1,-9.54%
2,O=C(NC1CC1)c1ccnc(N2CCOC(c3ccc(Cl)c(Cl)c3)C2)c1 (stereo not drawn),9.19%
3,CC(=O)N1CCN(C[C@H]2CC[C@@H](Cc3ccc4ncccc4c3)O2)CC1,-10.6%
4,CCCN1C[C@H]2CC[C@@H]1CN(C(=O)Cn1c(C)cc(C)nc1=O)C2,-14.9%
5,CC(C)=CCN1CCN(CCCOc2ccccc2)[C@H]2CS(=O)(=O)C[C@H]21,-4.88%
6,O=C(CN1CCNCC1)NCc1ccc2sccc2c1,3.14%
7,COc1cc(NCC(c2ccccn2)N(C)C)ncn1 (stereo not drawn),-5.7%
8,CCc1noc(CN(CC)Cc2cc3ccc(F)cc3[nH]c2=O)n1,9.1%
9,CN(C)S(=O)(=O)N1CCN(CC2CCOc3ccccc3C2)CC1 (stereo not drawn),-4.7%
10,COCc1cc(NCc2ccccc2OC)ncn1,-7.89%
11,Cc1noc(C)c1CCC(=O)N1CCOCC1CC(=O)N1CCCC1 (stereo not drawn),1.48%
12,O=C(O)[C@@]12CN(c3cnccn3)C[C@@H]1CN(C1CCOCC1)C2,-4.6%
13,Cc1[nH]c2c(F)cccc2c1CC(=O)N1CCN(C2CCSCC2)CC1,-19.7%
14,CC1(C(=O)N2CCC(n3cc(C4(O)CCCC4)nn3)CC2)CCCCC1,-9.72%
15,COc1ccc(OC)c2c(C)cc(N(CCO)CCO)nc12,19.5%
16,CCn1cc(SCC(=O)N2CCCC(O)(CO)C2)c2ccccc21 (stereo not drawn),-8.91%
17,CN1CCCN(C(C(=O)O)c2ccc3c(c2)OCO3)CC1 (stereo not drawn),0.827%
18,CCN(CC)c1ccc(C(=O)N2C[C@@H]3CC[C@H](C2)N(CCOC)C3)cc1,23.2%
19,Cc1nc(C)c(C)c(N2C[C@@H](CN3CCCN(C)CC3)[C@@H](CO)C2)n1,-1.83%
20,Cc1noc(C)c1C(=O)N1C[C@H]2CC[C@@H]1CN(c1cnccn1)C2,-5.44%
21,CCCS(=O)(=O)N1CCC2(CCC(=O)N(Cc3ccccc3)C2)CC1,-4.86%
22,CN1CCCN(C(=O)c2csc(-c3ccc(C(F)(F)F)cc3)n2)CC1,-7.23%

row,SMILES,cytotoxicity at 70.5 h
1,COc1ccc(F)cc1-c1nc2c([nH]1)c(C1CC1)nn2C,-4.46%
2,O=C(c1cccnc1O)N1CCC2(CCCO2)CC1,-6.62%
3,CCNC(=O)c1cn2cc(-c3ccccc3Cl)n(CC3CC3)c(=O)c2n1,16.2%
4,Cc1cc(-c2nc(-c3c(C)ncc4c3CCNC4)no2)nc(C)n1,26.9%
5,CC(C)c1nnc(CN2C(=O)OC[C@@H]2C(C)C)o1,-5.17%
6,Cc1noc(C)c1CN1C[C@@H](C(=O)O)[C@H](c2ccccn2)C1,-6.58%
7,CC(c1ccccn1)N(C)Cc1cc2cc3c(cc2[nH]c1=O)OCO3 (stereo not drawn),6.6%
8,COc1ccc(-c2ccnc(N)c2)c(OC)c1,13.7%
9,CN(C)S(=O)(=O)N1CC[C@]2(O)CCN(CCc3cccc(F)c3)C[C@@H]2C1,-11.2%
10,CN(C)C(=O)N1CCN(CCCc2ccccc2)[C@H]2CS(=O)(=O)C[C@H]21,-1.41%
11,Nc1nccc(N2C[C@@H](CN3CCCCC3)[C@@H](CO)C2)n1,-6.83%
12,O=C(O)c1ccc(CNC(=O)C2CCN(C(=O)C3CCC3)CC2)s1,-12.2%
13,CCc1[nH]c2c(CNc3nccc(N)n3)cc(F)cc2c1C,16.1%
14,Cc1ncc(S(C)(=O)=O)c(N2CCCCCC2)n1,7.29%
15,O=C(Nc1ccc(-c2cscn2)cc1)C1CCCN(Cc2ccon2)C1 (stereo not drawn),-1.4%
16,CCn1c(Cn2cncn2)nnc1C1CCN(Cc2cccnc2)CC1,9.57%
17,CN(C)S(=O)(=O)N1CC[C@]2(O)CCN(Cc3cc(F)cc(F)c3)C[C@@H]2C1,10.9%
18,CC(C)CN1CCc2[nH]cnc2C12CCN(C(=O)c1ccc[nH]1)CC2,-3.93%
19,OC1(CNCCc2nc3c(s2)CCCC3)CNCCOC1 (stereo not drawn),4.06%
20,Clc1ccc2nc(N3CCC(NCCCC4CCOC4)CC3)sc2c1 (stereo not drawn),48.3%
21,CC(C)OC(=O)N1CCC(Cc2cccc(C(N)=O)c2)C1 (stereo not drawn),35.3%
22,CN(CCO)C1CCN(c2ncc3c(n2)CCN3c2ccccc2)CC1,-3%

row,SMILES,cytotoxicity at 70.5 h
1,CCC[C@@H]1CN(Cc2c[nH]nc2-c2ccc(F)cc2)C[C@H]1NS(C)(=O)=O,-3.18%
2,COCCCN(C)[C@@H]1c2ccccc2C2(CCNCC2)[C@H]1O,-9.86%
3,COc1ccc(CNC(=O)CCN2C[C@@H](C)[C@](O)(C3CC3)C2)cc1,-4.82%
4,CCN1CCC(CC(=O)N2CCCCC2CCn2cccn2)CC1 (stereo not drawn),-11.1%
5,CN(Cc1csc(-c2ccccc2)n1)C(=O)CCNS(C)(=O)=O,-8.29%
6,Cc1cc(C(=O)N2CCC(CCC(=O)NCCN(C)C)CC2)ccc1O,24.4%
7,COc1cccc(CCC2CCCN(C(=O)c3ccccn3)C2)c1 (stereo not drawn),17.8%
8,CCC(CO)N(Cc1ccncc1)Cc1c[nH]nc1-c1ccc(F)cc1 (stereo not drawn),-7.22%
9,CCOCCn1c(=O)n(CCC(C)C)c2ncc(C(=O)O)cc21,1.96%
10,C[C@@H]1CN(C(=O)c2ccncc2)CC[C@@]1(O)C1CCOCC1,-1.23%
11,Cc1cc(CN2CCC(CNC(=O)C3(c4ccccc4)CC3)C2)[nH]n1 (stereo not drawn),6.56%
12,COCCN(C)C[C@H]1CC[C@@H](Cc2ccc3c(cnn3C)c2)O1,-6.52%
13,COCCn1ccnc1C1CCN(C(=O)CSc2nnc(C)s2)CC1,-5.74%
14,Cc1ccc(CCN2C(=O)CC[C@H]3CN(Cc4cnn(C)c4)CC[C@H]32)o1,-0.704%
15,Cc1nc(-c2ccncc2)ncc1C(C)NC(=O)CN1CCCC1=O (stereo not drawn),-5.92%
16,Cc1nc(C)c(CC(=O)N2C[C@H]3CC[C@@H]2CN(c2cnccn2)C3)s1,-4.55%
17,Cc1ccc(N(CC(=O)NCc2nnc3n2CCC3)S(C)(=O)=O)cc1,5.02%
18,O=C(c1ccc(S(=O)(=O)NCc2ccon2)cc1)N1CCOCC1,19.9%
19,COc1ccc(CN2CCC(O)(CN3CCCCC3)C2)c(C)c1 (stereo not drawn),-1.76%
20,O=C(c1cccnc1)N1CCOC(CCCc2ccccc2)C1 (stereo not drawn),0.528%
21,Cn1ncc(C2CC(=O)NCc3nc4ccccn4c32)c1C1CC1 (stereo not drawn),-11.4%
22,CC(C1CCN(Cc2c(Cl)cncc2Cl)CC1)N1CCN(C)CC1 (stereo not drawn),14.7%

row,SMILES,cytotoxicity at 70.5 h
1,CN(C)C(=O)CN1C[C@@H]2CC[C@H](C1)N(Cc1c(F)cccc1Cl)C2,-6.28%
2,Cc1nccn1CCC1CCCCN1C(=O)c1ccc(N(C)C)cc1 (stereo not drawn),-3.37%
3,CN1C(=O)C(c2ccccc2)CC12CCN(CCN1CCCC1=O)CC2 (stereo not drawn),12.2%
4,CCSc1ncc(CN2CCN(c3nc(C)ncc3C)CC2)cn1,-11.5%
5,O=C(NCc1nnc2n1CCC2)c1ccc(C2CCCO2)s1 (stereo not drawn),-4.87%
6,COC(=O)NCC(=O)N1CCC(c2nc3cc(F)ccc3[nH]2)CC1,-2%
7,Nc1nc2c(c(N3CCCC3)n1)CCN(Cc1ccccn1)CC2,8.7%
8,CCCc1nnc(N2CCC(N3CCCC(O)C3)CC2)o1 (stereo not drawn),7.96%
9,c1ccc(CCc2n[nH]c(C3CCOC3)n2)cc1 (stereo not drawn),-10.1%
10,CCc1nc(C)c(CN2CCOC(CCCC(C)C)C2)[nH]1 (stereo not drawn),27.1%
11,COc1ccc(OC)c(-n2c(COC(C)C)n[nH]c2=O)c1,-4.44%
12,CCc1c(C(=O)N2C[C@H]3CC[C@@H]2CN(c2cnccn2)C3)csc1C,-6.26%
13,COCC(=O)N1C[C@H]2CNC[C@@]2(C(=O)NCc2c(C)noc2C)C1,-0.367%
14,Cc1cc(C)nc(CN(C)C(=O)c2ccccc2C2CCNC2)c1 (stereo not drawn),-5.21%
15,COc1cccc(C(C(=O)O)N2CCCN(C3CCCC3)CC2)c1OC (stereo not drawn),20.1%
16,CN(Cc1nccn1C)C(=O)c1cccc(CCC(C)(C)O)c1,7.23%
17,Cc1nc(CNC(=O)c2cc(COc3cccc(F)c3)[nH]n2)n[nH]1,15.3%
18,O=C(Nc1ccc(F)cc1)C1CNCCN1C(=O)CC1CCCCC1 (stereo not drawn),31.3%
19,CCc1ocnc1C(=O)N1CCC2(CCCN(CC(C)(C)C)C2=O)C1 (stereo not drawn),-6.31%
20,COCCc1noc(-c2ccc(-c3ccc(N)nc3)nc2)n1,-2.31%
21,COc1ccccc1OC1CCN(Cc2ccc(N(C)C)nc2)CC1,-6.85%
22,OC1CCN(c2ccnc(NCCc3ccccc3Cl)n2)CC1,-25.8%

row,SMILES,cytotoxicity at 70.5 h
1,CC(=O)N[C@@H]1CN(Cc2nnc(-c3ccccc3)o2)C[C@H]1C(C)C,-16.1%
2,CCn1cc(-c2cc(-c3cc(CC(=O)O)cs3)nc(N)c2C#N)c(C)n1,-0.397%
3,Cc1nc(N2CCC(C(O)c3nccn3C)CC2)c2sccc2n1 (stereo not drawn),35.8%
4,Cc1nn(C)c2nc(-c3ccccn3)nc(NCCCOC(C)C)c12,-0.266%
5,Cc1ccc(S(N)(=O)=O)cc1C(=O)N1C[C@@H](CN(C)C)[C@@H](CO)C1,-5.13%
6,CCc1nnc(SCC(=O)N2CCc3[nH]nc(C4CCC4)c3C2)o1,-2.31%
7,CCNc1ncc(C(=O)NC(CCN(C)C)c2ccccc2)cn1 (stereo not drawn),26.8%
8,CSc1ccc2cc(CN(C)CCc3cn[nH]c3)c(=O)[nH]c2c1,2.27%
9,COCCN1CCCC2(CCN(Cc3nnc(C4CC4)o3)C2)C1=O (stereo not drawn),-6.43%
10,CCc1cc(C(=O)N2CC[C@@H](c3ccc4c(c3)OCO4)[C@H](O)C2)[nH]n1,25.7%
11,O=C(c1ncoc1C1CC1)N1CCCN(CCCc2ccccc2)CC1,-10.2%
12,Cc1nc(CN2CCCC(CCc3c(F)cccc3F)C2)c[nH]1 (stereo not drawn),-2.43%
13,O[C@H]1[C@H](n2cc(-c3ccccc3)nn2)c2ccccc2C12CCNCC2,2.04%
14,Cc1cc(C(=O)N2CCC3(CCCN(CC4CC4)C3=O)C2)c(C)n1C (stereo not drawn),-2.9%
15,CN(CCO)C(=O)c1coc(CN2CCN(c3ccccc3F)CC2)n1,-7.76%
16,CCOCCn1nc(C)cc1C(=O)N1CCN(C(C)C)C(CC)C1 (stereo not drawn),-8.86%
17,CC(=O)N1CCCn2nc(CNS(=O)(=O)c3cc(C)cs3)cc2C1,-4.2%
18,CC(C)c1cc(NCC(O)CO)n2nccc2n1 (stereo not drawn),-0.638%
19,CSCCCN1CCn2nc(CNC(C)=O)cc2C1,14.2%
20,OCCC1CN(C2CCC2)CCN1C1CCCC1 (stereo not drawn),-6.56%
